Counter-ions that a name gives are not always drawn.
Each compound was assayed against human GPBAR1 receptor (Homo sapiens (Human), UniProt Q8TDU6) (assay: functional cAMP assay in CHO-dhfr(minus) cells expressing human GPBAR1 receptors). Conditions: CHO-dhfr(minus) cells expressing human GPBAR1, 30 min at 30° C.
Format: cell-based
Method in brief: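 CHO-dhfr- cells were transfected with human GPBAR1, and a clone was chosen by cAMP response to lithocholic acid. EC50 values come from the cAMP read-out; specificity was checked in non-transfected CHO cells.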

human GPBAR1 receptor, sequence (Q8TDU6 whole entry): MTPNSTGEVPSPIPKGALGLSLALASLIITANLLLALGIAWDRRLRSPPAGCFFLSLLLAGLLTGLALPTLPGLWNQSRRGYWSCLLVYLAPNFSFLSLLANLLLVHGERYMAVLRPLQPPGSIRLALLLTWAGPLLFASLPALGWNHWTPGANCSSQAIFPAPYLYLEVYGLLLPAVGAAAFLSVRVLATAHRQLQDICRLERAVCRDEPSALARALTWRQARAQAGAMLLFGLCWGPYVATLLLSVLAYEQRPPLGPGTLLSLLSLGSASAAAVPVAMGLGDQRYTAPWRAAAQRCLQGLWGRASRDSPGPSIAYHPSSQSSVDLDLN

| Compound | EC50 [nM] |
| --- | --- |
| COc1cc(F)c(F)cc1-c1ccncc1N(CC(N)=O)C(=O)c1cc(C(F)(F)F)nc(C(F)(F)F)c1 [Example 174, N-(2-Amino-2-oxoethyl)-N-(4-(4,5-difluoro-2-methoxyphenyl)pyridin-3-yl)-2,6-bis(trifluoromethyl)isonicotinamide] | 54 |
| Cc1ccccc1-c1ccncc1N(C)C(=O)c1ccc(C(F)(F)F)cc1 [Example 90, N-Methyl-N-(4-o-tolyl-pyridin-3-yl)-4-trifluoromethyl-benzamide] | 2740 |
| COc1cc(F)ccc1-c1cc(C)ncc1N(C)C(=O)c1cc(C(F)(F)F)cc(S(C)(=O)=O)c1 [Example 202, N-[4-(4-Fluoro-2-methoxy-phenyl)-6-methyl-pyridin-3-yl]-3-methanesulfonyl-N-methyl-5-trifluoromethyl-benzamide] | 157 |
| COc1cc(F)ccc1-c1ccncc1N(CC1CCCCO1)C(=O)c1cc(C(F)(F)F)cc(S(C)(=O)=O)c1 (single isomer, unassigned; (-)) [Example 290, (−)-N-[4-(4-Fluoro-2-methoxy-phenyl)-pyridin-3-yl]-3-methanesulfonyl-N-[1-(tetrahydro-pyran-2-yl)methyl]-5-trifluoromethyl-benzamide] | 1740 |
| COc1cc(F)c(F)cc1-c1ccncc1N(C)C(=O)c1cc(C(F)(F)F)cc(C(F)(F)F)c1 [Example 39, N-[4-(4,5-Difluoro-2-methoxy-phenyl)-pyridin-3-yl]-N-methyl-3,5-bis-trifluoromethyl-benzamide] | 38 |
| CC(C)Oc1ncccc1-c1ccncc1N(C)C(=O)c1cc(C(F)(F)F)cc(C(F)(F)F)c1 [Example 46, N-(2-Isopropoxy-[3,4′]bipyridinyl-3′-yl)-N-methyl-3,5-bis-trifluoromethyl-benzamide] | 924 |
| CN(C(=O)c1cc(C(F)(F)F)cc(C(F)(F)F)c1)c1cnccc1-c1ccccc1N [Example 222, N-[4-(2-Amino-phenyl)-pyridin-3-yl]-N-methyl-3,5-bis-trifluoromethyl-benzamide] | 183 |
| CN(C(=O)c1cc(C(F)(F)F)cc(S(C)(=O)=O)c1)c1cnccc1-c1ccccc1OC1CC1 [Example 242, N-[4-(2-Cyclopropoxy-phenyl)-pyridin-3-yl]-3-methanesulfonyl-N-methyl-5-trifluoromethyl-benzamide] | 11 |
| CS(=O)(=O)c1cc(C(=O)N(CCO)c2cnccc2-c2ccccc2F)cc(C(F)(F)F)c1 [Example 244, N-[4-(2-Fluoro-phenyl)-pyridin-3-yl]-N-(2-hydroxy-ethyl)-3-methanesulfonyl-5-trifluoromethyl-benzamide] | 1150 |
| COc1ncccc1-c1ccncc1N(CC(F)(F)F)C(=O)c1cc(F)cc(C(F)(F)F)c1 [Example 141, 3-Fluoro-N-(2-methoxy-[3,4′]bipyridinyl-3′-yl)-N-(2,2,2-trifluoro-ethyl)-5-trifluoromethyl-benzamide] | 1660 |
| COc1ccccc1-c1ccncc1N(C)C(=O)c1cc(C(F)(F)F)cc(S(C)(=O)=O)c1 [Example 263, 3-Methanesulfonyl-N-[4-(2-methoxy-phenyl)-pyridin-3-yl]-N-methyl-5-trifluoromethyl-benzamide] | 17 |
| COc1cc(F)ccc1-c1ccncc1N(C)C(=O)c1cc(C(F)(F)F)cc(C(F)(F)F)c1 [Example 38, N-[4-(4-Fluoro-2-methoxy-phenyl)-pyridin-3-yl]-N-methyl-3,5-bis-trifluoromethyl-benzamide] | 11 |
| CS(=O)(=O)c1cc(C(=O)N(CC(N)=O)c2cnccc2-c2ccccc2Cl)cc(C(F)(F)F)c1 [Example 296, N-Carbamoylmethyl-N-[4-(2-chloro-phenyl)-pyridin-3-yl]-3-methanesulfonyl-5-trifluoromethyl-benzamide] | 1340 |
| COc1cc(F)ccc1-c1ccncc1N(CC1CCCCO1)C(=O)c1cc(C(F)(F)F)cc(S(C)(=O)=O)c1 (single isomer, unassigned; (+)) [Example 291, (+)-N-[4-(4-Fluoro-2-methoxy-phenyl)-pyridin-3-yl]-3-methanesulfonyl-N-[1-(tetrahydro-pyran-2-yl)methyl]-5-trifluoromethyl-benzamide] | 2840 |
| CN(C(=O)c1cc(C(F)(F)F)cc(C(F)(F)F)c1)c1cnccc1-c1c(F)cccc1F [Example 64, N-[4-(2,6-Difluoro-phenyl)-pyridin-3-yl]-N-methyl-3,5-bis-trifluoromethyl-benzamide] | 14 |
| CN(C(=O)c1cc(C(F)(F)F)cc(S(C)(=O)=O)c1)c1cnccc1-c1cccnc1OCC(F)(F)F [Example 279, 3-Methanesulfonyl-N-methyl-N-[2-(2,2,2-trifluoro-ethoxy)-[3,4′]bipyridinyl-3′-yl]-5-trifluoromethyl-benzamide] | 77 |
| Cc1ccccc1-c1ccncc1N(C)C(=O)c1cc(C(F)(F)F)cc(C(F)(F)F)c1 [Example 1, N-Methyl-N-(4-o-tolyl-pyridin-3-yl)-3,5-bis-trifluoromethyl-benzamide] | 22 |

| Compound | EC50 [nM] |
| --- | --- |
| NC(=O)CN(C(=O)c1cc(C(F)(F)F)cc(C(F)(F)F)c1)c1cnccc1-c1ccccc1Cl [Example 117, N-Carbamoylmethyl-N-[4-(2-chloro-phenyl)-pyridin-3-yl]-3,5-bis-trifluoromethyl-benzamide] | 52 |
| COc1cccc(-c2ccncc2N(C)C(=O)c2cc(C(F)(F)F)cc(C(F)(F)F)c2)c1OC [Example 167, N-[4-(2,3-Dimethoxy-phenyl)-pyridin-3-yl]-N-methyl-3,5-bis-trifluoromethyl-benzamide] | 2720 |
| CN(C(=O)c1cc(C(F)(F)F)cc(S(C)(=O)=O)c1)c1cnccc1-c1ccccc1OCc1ccccc1 [Example 258, N-[4-(2-Benzyloxy-phenyl)-pyridin-3-yl]-3-methanesulfonyl-N-methyl-5-trifluoromethyl-benzamide] | 1860 |
| CN(C(=O)c1cc(C(F)(F)F)cc(C(F)(F)F)c1)c1cnccc1-c1ccc(F)cc1OCCO [Example 52, N-{4-[4-Fluoro-2-(2-hydroxy-ethoxy)-phenyl]-pyridin-3-yl}-N-methyl-3,5-bis-trifluoromethyl-benzamide] | 463 |
| Cc1ccccc1-c1ccncc1N(C)C(=O)c1cc(N)cc(C(F)(F)F)c1 [Example 164, 3-amino-N-methyl-N-(4-o-tolylpyridin-3-yl)-5-(trifluoromethyl)benzamide] | 1700 |
| CN(C(=O)c1cc(C(F)(F)F)cc(C(F)(F)F)c1)c1cnc(Cl)cc1-c1ncccc1Cl [Example 73, N-(3,6′-Dichloro-[2,4′]bipyridinyl-3′-yl)-N-methyl-3,5-bis-trifluoromethyl-benzamide] | 1830 |
| CS(=O)(=O)CCN(C(=O)c1cc(C(F)(F)F)cc(C(F)(F)F)c1)c1cnccc1-c1ccccc1F [Example 191, N-[4-(2-Fluoro-phenyl)-pyridin-3-yl]-N-(2-methanesulfonyl-ethyl)-3,5-bis-trifluoromethyl-benzamide] | 111 |
| COc1ncccc1-c1ccncc1N(CC(F)(F)F)C(=O)c1cc(C(F)(F)F)cc(C(F)(F)F)c1 [Example 135, N-(2-Methoxy-[3,4′]bipyridinyl-3′-yl)-N-(2,2,2-trifluoro-ethyl)-3,5-bis-trifluoromethyl-benzamide] | 91 |
| COc1cc(F)ccc1-c1ccncc1N(CC(F)(F)F)C(=O)c1cc(C(F)(F)F)cc(S(C)(=O)=O)c1 [Example 136, N-[4-(4-Fluoro-2-methoxy-phenyl)-pyridin-3-yl]-3-methanesulfonyl-N-(2,2,2-trifluoro-ethyl)-5-trifluoromethyl-benzamide] | 247 |
| CC(C)Oc1ccccc1-c1ccncc1N(C)C(=O)c1cc(C(F)(F)F)cc(C(F)(F)F)c1 [Example 35, N-[4-(2-Isopropoxy-phenyl)-pyridin-3-yl]-N-methyl-3,5-bis-trifluoromethyl-benzamide] | 163 |
| CC1CCCCN1c1ccncc1N(C)C(=O)c1cc(Cl)cc(Cl)c1 (stereo not shown) [Example 21, 3,5-Dichloro-N-methyl-N-(2-methyl-3,4,5,6-tetrahydro-2H-[1,4′]bipyridinyl-3′-yl)-benzamide hydrochloride salt] | 388 |
| COc1cc(F)c(F)cc1-c1ccncc1N(CC(N)=O)C(=O)c1cc(C(F)(F)F)cc(S(C)(=O)=O)c1 [Example 193, N-(2-Amino-2-oxoethyl)-N-(4-(4,5-difluoro-2-methoxyphenyl)pyridin-3-yl)-3-(methylsulfonyl)-5-(trifluoromethyl)benzamide] | 456 |
| COc1ncccc1-c1ccncc1N(CC(F)(F)F)C(=O)c1cc(C(F)(F)F)cc(S(C)(=O)=O)c1 [Example 142, 3-Methanesulfonyl-N-(2-methoxy-[3,4′]bipyridinyl-3′-yl)-N-(2,2,2-trifluoro-ethyl)-5-trifluoromethyl-benzamide] | 396 |
| Cc1ccccc1-c1cc(N2CCN(S(C)(=O)=O)CC2)ncc1N(C)C(=O)c1cc(C(F)(F)F)cc(C(F)(F)F)c1 [Example 17, N-[6-(4-Methanesulfonyl-piperazin-1-yl)-4-o-tolyl-pyridin-3-yl]-N-methyl-3,5-bis-trifluoromethyl-benzamide] | 336 |
| COc1cc(F)c(F)cc1-c1ccncc1N(CC(F)(F)F)C(=O)c1cc(C(F)(F)F)nc(C(F)(F)F)c1 [Example 146, N-[4-(4,5-Difluoro-2-methoxy-phenyl)-pyridin-3-yl]-N-(2,2,2-trifluoro-ethyl)-2,6-bis-trifluoromethyl-isonicotinamide] | 69 |
| COc1cc(F)ccc1-c1ccncc1N(CC1CCOC1)C(=O)c1cc(C(F)(F)F)cc(S(C)(=O)=O)c1 (stereo not shown) [Example 273, N-[4-(4-Fluoro-2-methoxy-phenyl)-pyridin-3-yl]-3-methanesulfonyl-N-(tetrahydro-furan-3-ylmethyl)-5-trifluoromethyl-benzamide] | 1500 |
| CN(C(=O)c1cc(C(F)(F)F)cc(C(F)(F)F)c1)c1cnccc1-c1ccc(F)cc1O [Example 48, N-[4-(4-Fluoro-2-hydroxy-phenyl)-pyridin-3-yl]-N-methyl-3,5-bis-trifluoromethyl-benzamide] | 307 |

From patent US10385022B2, “3-amino-pyridines as GPBAR1 agonists” (HOFFMANN-LA ROCHE INC., priority 2011, dated 2019)
